Results reported in patent publication US12629376B2, “Composition for use in the treatment of ApoL1-associated disease” (RAMBAM MED-TECH LTD., priority 2020, dated 2026).

How the values were obtained:
[1] = system: ApoL1-G1-induced T-REx-293 stable cell line; test: ApoL1-G1-induced cell viability assay (CellTiter-Glo); type: cell-based, human; conditions: for viability of ApoL1-G1 expressing cells: FIG. 1, 16 hours incubation, 0.08-10 μM, 1 ng/ml Doxycycline, luminescence live-cell count; for cell protective effect against ApoL1 toxicity: cell-based high throughput screening of 200,000 compounds, doxycycline-induced ApoL1-G1 T-REx-293 cells; for cell protective effect against ApoL1 toxicity / cell toxicity: 10 μM; for cell toxicity: high throughput screening, T-REx-293 cells
Procedure: ApoL1-G1-induced T-REx-293 stable cell line was generated by introducing Flag-tagged human G1 ApoL1 variant DNA (with African genomic sequence background) into the pcDNA4/TO plasmid, which yield expression upon Doxycycline addition. Cells were cultured in DMEM (Gibco, 41965-039) supplemented with 10% FBS, 1% penicillin-streptomycin at 37° C.
In order to estimate the effect of compounds 1, 3 and 7 on ApoL1-induced cells a cell viability assay was performed as following: cells were seeded at density 23K cells per well (96-well plate). Prior to seeding, wells were coated with Fibronectin (Biological industries, 03-090-1-05) for 1 hour at 37° C. On the following day, cells were switched to the same growth medium but containing 1 ng/ml Doxycycline (Sigma, D9891) with different concentrations of compounds 1, 3 or 7, for 16 hours. Then, cells were subjected to viability assay according to manufacturer's instructions, using CellTiter-Glo luminescent cell viability assay kit (Promega, G7570). The plate was read using Infinite 200 PRO for luminescence, which indicated live-cell count.
Induction of ApoL1-G1 variant by doxycycline causes toxicity in T-REx-293 cell line. In order to identify potential inhibitors of ApoL1 toxicity, a cell-based high throughput screening of 200,000 chemical compounds was performed. Cells were incubated with a compound solution (at 10 μM concentration).

T-REx-293 cells = test: cell toxicity assay for anti-proliferative effect (Cell-Titer Glo); type: cell-based; conditions: FIG. 2, 10 μM, 16 hours
Procedure: T-REx-293 cells were seeded at a density of 25K cells/well on fibronectin in 96-well plates and grown in DMEM with 10% FBS, 1% P/S medium. 24 hours post-seeding medium was changed to a fresh medium comprising the tested compounds (KS-1, KS-2, or KS-8) at a concentration of 5-10 μM. Non-treated cells were used as a negative control. After 16 hours one plate of the cells was taken for cell viability test using Cell-Titer Glo reagent (Promega). Cells on the other plate were imaged using Incucyte ZOOM system.

Row | SMILES | viability of ApoL1-G1 expressing cells [1] | cell protective effect against ApoL1 toxicity [1] | cell toxicity [1] | cell count determined via luminescence signal (relative light units, RLU) versus non-treated cells (T-REx-293 cells)
1 | Cc1c(C)n(Cc2ccc(Br)cc2)c(=O)n(Cc2ccc(Br)cc2)c1=O [Compound 1] | concentration dependent viability increase | highest cell protective effect | without exhibiting a significant cell toxicity | –
2 | O=c1c2ccccc2n(Cc2ccncc2)c(=O)n1Cc1ccc(Cl)cc1 [KS-1] | – | – | – | lower
3 | COc1ccccc1C(=O)Nc1cccc(N2CCC(NC(C)c3cnn(-c4ccccc4)c3)CC2)c1 (stereo not drawn) [Compound 7] | concentration dependent viability increase | highest cell protective effect | without exhibiting a significant cell toxicity | –
4 | O=c1c2ccccc2n(Cc2ccc(Cl)cc2)c(=O)n1Cc1cccs1 [KS-2] | – | – | – | lower
5 | O=c1c2ccccc2n(Cc2ccc(Cl)cc2)c(=O)n1Cc1ccc(Cl)cc1 [Compound 3] | concentration dependent viability increase | highest cell protective effect | without exhibiting a significant cell toxicity | –
6 | O=c1c2ccccc2n(Cc2ccc(Cl)cc2)c(=O)n1C1CC=CC1 [KS-8] | – | – | – | lower
